Test results from patent publication US11279913B2, “Sperm processing method, apparatus and related media compositions” (Inguran, LLC, priority 2017, dated 2022).

Legend:
Type in all cases: cell-based
bovine sperm [1] = assay: Motility of stained unsorted bovine sperm held in Caprogen-type fresh media (fluorescent CASA), Example 14
From the text: This is with “conventional” (unsorted) sperm stained with Hoechst 33342 (to facilitate CASA using fluorescence).
The fresh extender is a media similar to Caprogen, which contains 5% (v/v) egg yolk and is bubbled with nitrogen gas prior to diluting sperm.
In Caprogen with glycerol, the concentration of glycine is 135 millimolar and the concentration of glycerol is 135 millimolar. Control Media 1 was made with these same concentrations, while the balance of test media (Media 2-7) were made with the following concentrations as shown in Table 13:
Fresh Bovine Ejaculates of 5 bulls were diluted to 160 million sperm per mL into Staining TALP, combined with Hoechst 33342 DNA stain, incubated 60 minutes at 34° C. (as standard staining for XY sperm sorting). Once stained, the sperm in TALP were diluted in the related media to a new concentration of 15 million sperm per mL and placed into 0.25 cc straws, sealed and held horizontal at 18° C. for 4 days. On each day, one straw of sperm was warmed for 15 minutes at 34° C. and the contents of about 200 microliters from the straw were combined with 100 microliters of fresh media identical to the specified test media used to hold the sperm. Sperm were analyzed on fluorescent CASA (Hamilton Thorne IVOS II) using UV illumination.

bovine sperm [2] = assay: Post-thaw visual motility of unstained non-sorted sperm frozen in erythritol test media, Example 17 first test
Protocol: Standard bovine sperm sorting uses sheath fluid comprising 68 mM Fructose, 80 mM Citrate and 243 mM TRIS at pH 6.80 and osmolarity 290-300 mOsm. […] Combining 88 volumes of TRIS A with 12 volumes of pure glycerol creates a solution called TRIS B (The “B Fraction”). In the case of standard sperm sorting, the “B Fraction” may optionally contain no egg yolk and may be called “[…] Fraction” still containing 12 volumes of pure glycerol. […] The pH of all media was 6.70-6.75 and the osmolarity was 290-305 mOsm. The same two bulls were used for each of two tests and were measured for post-thaw quality at the same time. The first test was done with unstained non-sorted sperm similar to standard “conventional freezing.” The second test was done using different sheath fluids for sorting sperm. The first test compared control (standard media) to 7 alternate media (A-G) with compositions including various amounts of erythritol and in some cases glycine. 10 milliliters of sperm of each bull at a concentration of 100 million sperm per milliliter was cooled in standard TRIS A (control media) over 90 minutes from room temperature to about 4-6° C. Samples were then divided into 1 milliliter aliquots and 0.5 mL of cold TEST-B media was added, held for 15 minutes before an additional 0.5 mL of TEST-B media was added. […]

sorted bovine sperm = assay: Motility of sorted bovine sperm stored in CaproGLY or CaproERY at 17° C. (visual and CASA), Example 15; conditions: holding times longer than 4 days; erythritol versus glycerol in Caprogen
Protocol: Standard Caprogen (with glycerol) is referred to as “CaproGLY” and erythritol containing Caprogen is referred to as “CaproERY.”
Preparation of media in volume of 100 mL: 95 mL of the respective media working solution is combined with 5 mL of egg yolk, stirred for 15 minutes, held overnight at 4° C., centrifuged for 60 minutes at 1200 G in 50 mL Falcon Tubes (clarified). On day of use, nitrogen gas is bubbled through the clarified media for 15 minutes.
Sorting of the sperm to be held in the two fresh extenders: Fresh Ejaculates of 3 Jersey bulls are bulk sorted according to standard proprietary sex sorting methods disclosed in other patents. In brief, sperm are washed, concentrated and resuspended in a Hepes buffered TRIS Citrate extender to normalize concentration to about […] and pH about 7.15. Each 1 mL of staining comprises: 0.150 mL of sperm solution (about 160 million sperm), 64 nanomoles of Hoechst 33342 in 8 microliters, […] of staining TALP and 100 nanomoles of FD&C food dye. […]
The formulated sperm are filled into 0.25 cc straws, sealed and stored horizontally at 17° C. for up to nine days. On the specified test days, a straw is opened and checked for visual motility (counted by eye by technician using microscope analysis on heated stage), CASA total motility and CASA progressive motility using a Hamilton Thorne IVOS system. […]

bovine sperm [3] = assay: Post-thaw visual motility of sperm sorted with different sheath fluids, Example 17 second test; conditions: up to 60 mM erythritol in sheath fluid; standard post-sort handling
Protocol: Standard bovine sperm sorting uses sheath fluid comprising 68 mM Fructose, 80 mM Citrate and 243 mM TRIS at pH 6.80 and osmolarity 290-300 mOsm. […] Combining 88 volumes of TRIS A with 12 volumes of pure glycerol creates a solution called TRIS B (The “B Fraction”). In the case of standard sperm sorting, the “B Fraction” may optionally contain no egg yolk and may be called “[…] Fraction” still containing 12 volumes of pure glycerol. […] The pH of all media was 6.70-6.75 and the osmolarity was 290-305 mOsm. The same two bulls were used for each of two tests and were measured for post-thaw quality at the same time. The first test was done with unstained non-sorted sperm similar to standard “conventional freezing.” The second test was done using different sheath fluids for sorting sperm. The second test compared a CONTROL (standard) sheath fluid to three alternate sheath fluids (H-J). After sorting all samples were handled in the identical manner to standard sperm sorting. A 3.5 mL volume of catch fluid (TRIS A) is placed in each catch tube and sorted sperm are sorted into the catch tube to a volume of 20 mL. That volume of fluid is then cooled for 90 minutes to about 4-6° C. then an equal volume of cold […] Fraction is added. […]

`OCC(O)CO` [glycerol, reference compound] was tested. Which “support of sperm motility (in words)” value (bovine sperm [1]; up to 4 days, 135 millimolar glycerol, or its replacement with erythritol, in Caprogen fresh media) did it give?
Its value is “beneficial for supporting sperm motility”.

With `OC[C@@H](O)[C@@H](O)CO` [erythritol] as the compound, how does the “erythritol concentration giving optimal freezing results” value (bovine sperm [2]) read?
Its value is 15 to 50 mM.

What about the “preserving quality as seen in motility (in words)” value (sorted bovine sperm) of the same compound?
The value was “better at preserving quality as seen in motility”.

What about the “support of bovine sperm motility (in words)” value (bovine sperm [1]; as much as 400 millimolar Erythritol in fresh bovine extender, 4 day period) of the same compound?
Its value is “good support of bovine sperm motility”.

And the “effect on sperm quality when present in sheath fluid (in words)” value (bovine sperm [3])?
The value was “beneficial to sperm quality”.
